The target of assay [1] is T1, N-acyl-phosphatidylethanolamine-hydrolyzing phospholipase D (Homo sapiens, UniProt Q6IQ20). Briefly: Inhibition of full length human NAPE-PLD expressed in HEK293T cell lysate using PED6 as substrate preincubated for 30 mins followed by substrate addition and measured at 2 mins interval for 1 hr by tecan-plate reader analysis. In kind it is subcellular.
Assay [2] concerns the target T2, N-acyl-phosphatidylethanolamine-hydrolyzing phospholipase D (Mus musculus, UniProt Q8BH82).
T2 sequence (Q8BH82 whole entry): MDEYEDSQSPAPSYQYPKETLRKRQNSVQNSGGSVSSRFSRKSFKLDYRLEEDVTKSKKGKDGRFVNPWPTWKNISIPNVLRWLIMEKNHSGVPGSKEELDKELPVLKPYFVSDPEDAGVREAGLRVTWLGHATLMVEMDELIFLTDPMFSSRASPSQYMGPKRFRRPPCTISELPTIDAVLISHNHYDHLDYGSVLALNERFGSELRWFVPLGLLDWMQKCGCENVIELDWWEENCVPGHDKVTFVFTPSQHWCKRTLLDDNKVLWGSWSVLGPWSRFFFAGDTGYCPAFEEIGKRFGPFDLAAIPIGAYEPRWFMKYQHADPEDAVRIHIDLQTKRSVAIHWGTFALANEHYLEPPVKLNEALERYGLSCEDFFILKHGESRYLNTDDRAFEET
As to the kind of experiment: Inhibition of full length mouse NAPE-PLD expressed in HEK293T cell lysate using PED6 as substrate preincubated for 30 mins followed by substrate addition and measured at 2 mins interval for 1 hr by tecan-plate reader analysis. In kind it is subcellular.

For assay [3], the target named is T1, N-acyl-phosphatidylethanolamine-hydrolyzing phospholipase D. Briefly: Inhibition of full length human NAPE-PLD expressed in HEK293 cells using radiolabelled diether-NAPE as substrate incubated for 20 mins by liquid scintillation counter analysis.

pIC50: −log10 of the molar value.

T1 sequence (Q6IQ20 whole entry): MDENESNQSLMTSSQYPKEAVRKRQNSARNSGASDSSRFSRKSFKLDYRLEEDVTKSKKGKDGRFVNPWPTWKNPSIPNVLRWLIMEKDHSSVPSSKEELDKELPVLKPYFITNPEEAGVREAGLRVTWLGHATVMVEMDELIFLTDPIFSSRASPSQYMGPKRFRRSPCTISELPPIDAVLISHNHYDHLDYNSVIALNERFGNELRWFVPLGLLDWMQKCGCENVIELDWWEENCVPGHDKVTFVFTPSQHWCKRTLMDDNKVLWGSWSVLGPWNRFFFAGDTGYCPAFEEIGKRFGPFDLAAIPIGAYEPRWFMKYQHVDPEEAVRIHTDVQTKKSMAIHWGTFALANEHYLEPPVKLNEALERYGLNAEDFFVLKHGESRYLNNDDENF

Regarding `O=C(NCC1CC1)c1cc(N2CCS(=O)(=O)CC2)nc(N2CCC[C@@H](c3ccccc3)C2)n1`, the pIC50 (in general, the negative decadic logarithm of the IC50, by convention in mol/L) in assay [1] is 4.76; in assay [2], 5.02.
Consider `CNC(=O)CNC(=O)c1cc(N2CCOCC2)nc(N(C)CCc2ccccc2)n1`, for which the pIC50 in assay [1] is 4.77.
Take `O=C(NCC1CC1)c1cc(N2CC[C@H](O)C2)nc(N2CCC[C@H](c3ccccc3)C2)n1`: the negative-log IC50 (pIC50) in assay [2] was 5.74.
`CN(CCc1ccccc1)c1nc(C(=O)NCC#N)cc(N2CCOCC2)n1` gave a pIC50 in assay [1] of 4.51.
On the same count and under the same terms, the same measure for `CN(CCc1ccccc1)c1nc(C(=O)NCC2CC2)cc(N2CCS(=O)(=O)CC2)n1`: less than 4.30.
On to `O=C(NCC1CC1)c1cc(N2CC[C@@H](O)C2)nc(N2CCC[C@H](c3ccccc3)C2)n1`, for which, in assay [2], the pIC50 was 5.90.
For `O=C(NCC1CC1)c1cc(N2CCOCC2)nc(N2CCC[C@@H](c3ccccc3)C2)n1`, the pIC50 in assay [2] is 6.24.
`O=C(NCC1CC1)c1cc(N2CCOCC2)nc(NCc2ccccc2)n1` showed a pIC50 in assay [1] of 4.64.
With `CN(CCc1ccccc1)c1nc(C(=O)NCC2CC2)cc(N2CCOCC2)n1`, the pIC50 in assay [1] was 6.09; in assay [2] it was 5.48.
`CNC(=O)c1cc(N2CCOCC2)nc(N(C)CCc2ccccc2)n1` had a pIC50 in assay [1] of 4.87.
The same measure, in the same setting: the same measure for `CN(CCc1ccccc1)c1nc(C(=O)O)cc(N2CCOCC2)n1`: less than 4.30; for `CN(CC1CC1)C(=O)c1cc(N2CCOCC2)nc(N(C)CCc2ccccc2)n1`: less than 4.30.
The same measure, in the same setting: for `CN(CCc1ccccc1)c1nc(C(=O)NCC2CC2)cc(N2CCN(C(=O)OCc3ccccc3)CC2)n1` the value was 4.89.
Consider `CN(C)c1cc(C(=O)NCC2CC2)nc(N2CCC[C@@H](c3ccccc3)C2)n1`, for which the pIC50 in assay [2] is 6.41.
Regarding `O=C(NCC1CC1)c1cc(N2CCOCC2)ncn1`, the negative logarithm of the IC50 (pIC50) in assay [1] is less than 4.30.
In assay [1], `CN(CCc1ccccc1)c1nc(NC(=O)CC2CC2)cc(N2CCOCC2)n1` gave a pIC50 of 5.12.
`CN(CCc1ccccc1)c1nc(C(=O)NCc2ccc(-c3ccccc3)cc2)cc(N2CCOCC2)n1` showed a pIC50 in assay [1] of less than 4.30.
Still for that read-out and setting: the same measure for `O=C(NCC1CC1)c1cc(N2CCOCC2)nc(N(CCc2ccccc2)c2ccccc2)n1`: 5.95; for `CN(CCc1ccccc1)c1nc(C(N)=O)cc(N2CCOCC2)n1`: 4.75; for `CCCCCCNC(=O)c1cc(N2CCOCC2)nc(N(C)CCc2ccccc2)n1`: 4.46.
Still for that read-out and setting: the same measure for `CN(CCc1ccccc1)c1nc(C(=O)NCC(C)(C)C)cc(N2CCOCC2)n1`: 4.67; for `CN(CCc1ccccc1)c1nc(-c2ncc(C3CC3)[nH]2)cc(N2CCOCC2)n1`: 4.39; for `CN(CCc1ccccc1)c1nc(C(=O)NCC(=O)O)cc(N2CCOCC2)n1`: less than 4.30.
The same measure, in the same setting: for `O=C(NCC1CC1)c1cc(N2CCOCC2)nc(N(CCc2ccccc2)Cc2ccccc2)n1` the value was 6.13.
Molecule `COCCNC(=O)c1cc(N2CCOCC2)nc(N(C)CCc2ccccc2)n1` gave a pIC50 in assay [1] of 4.96. This pIC50 lies 1.17 log units lower than the previous one.
Molecule `O=C(NCC1CC1)c1cc(N2CC[C@H](O)C2)nc(N2CCC[C@@H](c3ccccc3)C2)n1` had a pIC50 in assay [2] of 6.35.
The molecule `CN(CCc1ccccc1)c1nc(C(=O)NCC(F)(F)F)cc(N2CCOCC2)n1` gave a negative logarithm of the IC50 (pIC50) in assay [1] of 4.48.
The molecule `CN(CCc1ccccc1)c1nc(C(=O)NCC2CC2)nc(N2CCOCC2)n1` had a negative-log IC50 (pIC50) in assay [1] of less than 4.30.
The molecule `O=C(NCC1CC1)c1cc(N2CC[C@@H](O)C2)nc(N2CCC[C@@H](c3ccccc3)C2)n1` showed a pIC50 in assay [2] of 6.42.
In assay [3], `CCCCCCCCCCCCCC(=O)NCCNP(=O)(O)OCC(COC(=O)CCCCC)OC(=O)CCCCC` (stereo unspecified) gave a pIC50 of 5.00.
The molecule `CN(CCc1ccccc1)c1nc(C(=O)NCc2nccs2)cc(N2CCOCC2)n1` showed a negative logarithm of the IC50 (pIC50) in assay [1] of 4.49.
Still for that read-out and setting: for `CN(CCc1ccccc1)c1nc(C(=O)NCc2ccccc2)cc(N2CCOCC2)n1` the value was 4.63.
The same measure, in the same setting: for `O=C(NCC1CC1)c1cc(N2CCOCC2)nc(N2CCCCC2CC2CCCCC2)n1` (racemic) the value was 4.60; for `O=C(NCC1CC1)c1cc(N2CCOCC2)nc(Cl)n1`, less than 4.30.

The record behind these values is ChEMBL document CHEMBL4706644, “Structure-Activity Relationship Studies of Pyrimidine-4-Carboxamides as Inhibitors of N-Acylphosphatidylethanolamine Phospholipase D” (J Med Chem, 2021).
